Values of other authors, collected in patent publication US20020187562A1, “Materials for separating and detecting enantiomers of amphetamine or methamphetamine, and their application” (priority 2001, published 2002).

System: central nervous system
Settings: relative to D-MA

For `CN[C@H](C)Cc1ccccc1` [L-MA, (R)-(−)-N-methyl-1-phenyl-2-aminopropane], the “stimulation to the central nervous system of humans compared with D-MA” value is listed as “much weaker than that of D-MA”.
